Test results reported in patent US20240050406A1, “COMPOSITION COMPRISING OXIRACETAM FOR PREVENTING OR TREATING MUSCULAR DISEASE” (KSB TUGEN INC., priority 2021, published 2024).

Assays:
[1] = tested on: animal model in which muscular atrophy is induced by dexamethasone; test: Comparison with dementia drugs in dexamethasone muscular atrophy model (Experimental Example 5); format: in vivo, ICR mice
Description: For an experimental group in the present invention, oxiracetam having a structure of Formula 1 was purchased from Tokyo Chemical Industry (Japan; Product No. 00398, CAS RN:62613-82-5, purity: 96%) and used. Mirtazapine and olanzapine were purchased from Tokyo Chemical Industry (Japan, Product Nos. M2151, 00393, purity: 96%) and used.
As experimental animals, 7-week-old male ICR mice were purchased and used. Until the day of the experiment, general feed (EEGJ30060: Cargill Agri Purina, Seongnam, Korea) and water were sufficiently supplied to the experimental animals, and the animals were acclimated for 1 week under an environment of a temperature of 23±2° C., a humidity of 55±10%, and a light-dark cycle of 12 hours-12 hours and used in the experiment.
After the acclimation period for the experimental animals, to create a muscular atrophy model, the mice were randomly divided into groups of 7 animals, such as a control (vehicle, n=7), a dexamethasone-treated group (n=7), and a drug-administered group (n=7). The groups except for the control were intraperitoneally injected dexamethasone at a dose of 10 mg/kg from day 7 to day 21 for 14 days. In the case of the drug-administered group, 7 days before the intraperitoneal administration of dexamethasone, the drug was orally administered using a Zonde needle at a dose of 30 or 10 mg/kg/day once a day for 21 days. During the same period, the control was administered no drug, and 100 μL of normal saline was orally administered at a time. To the dexamethasone-treated group (dexamethasone excipient, CMC), instead of the drug, 100 μL of a 0.5% carboxymethylcellulose (CMC) solution was administered. This is to set the effect on the excipient as a blank.
To measure grip strength, a grip strength test was performed. The maximum force presented when the forelimbs of an animal model of each group could no longer hold the rod by pulling the tail horizontally while holding the tail of the animal model and holding the rod of a device with both front paws was considered to be grip strength (N). Grip strength adaptation training was performed at least three times before drug administration. After measurement before drug administration (day 0) and on day 20 after drug administration began, grip strength variation (%) after drug administration began (day 20) with respect to that before drug administration (day 0) was calculated.
(§1) The lean body mass of the gastrocnemius muscle (GS) and the lean body mass of the tibialis anterior (TA) for each group were measured every 7 days. Specifically, animal models of each group were anesthetized using 3% isoflurane, fixed to a photographing bed and then photographed. During photographing, the respiratory rates and body temperatures of the animal models were measured with an animal monitoring system (SA Instruments, USA).
(§2) The whole body of the animal model was photographed through dual energy X-ray absorptiometry (DEXA) using iNSiGHT VET DXA (Osteosys, KR), and the lean body mass of each of the gastrocnemius muscle (GS) and the tibialis anterior (TA) was measured and calculated from the two-dimensional images of the gastrocnemius muscle (GS) and the tibialis anterior (TA) by a program using the region of interest (ROI).
Statistical processing was performed using GraphPad Prism (GraphPad Software Inc., San Diego, CA, USA). The results of each repeated experiment were expressed as mean±standard error of mean, and analyzed using the analysis of variance (Tukey's test), and statistical significance was acknowledged when the P-value was 0.05 or less.

[2] = tested on: animal model in which muscular atrophy was induced by dexamethasone; test: Comparison with racetam-based drugs in dexamethasone muscular atrophy model (Experimental Example 4); format: in vivo, ICR mice
Description: For an experimental group in the present invention, oxiracetam having a structure of Formula 1 was purchased from Tokyo Chemical Industry (Japan; Product No. 00398, CAS RN:62613-82-5, purity: 96%) and used. Other racetam drugs, such as aniracetam and nepiracetam, were purchased from Bide Pharmatech (W-44; China, Product Nos. BD114391, BD140804, purity: 96%), piracetam, phenylpiracetam, corulacetam and pramiracetam were purchased from Tokyo Chemical Industry (Japan, Product Nos. P2880, P2604, C3689, P2061, purity: 96%), levetiracetam was purchased from Roeun China, Product No. R025860, purity: 96%), brivaracetam was purchased from R&D Systems (USA, Product No. 7271, purity: 96%), rolziracetam and faroracetam were purchased from Targetmol (USA, Product Nos. T16783, T19624, purity: 96%), and rolipram was purchased from Aladdin (MAT; China, Product No. R129674, purity: 96%).
As experimental animals, 7-week-old male ICR mice were purchased and used. […]
To measure grip strength, a grip strength test was performed. […] After measurement before drug administration (day 0) and on day 20 after drug administration began, grip strength variation (%) after drug administration began (day 20) with respect to that before drug administration (day 0) was calculated.
as §1, with “Specifically, animal models of each group were anesthetized using 3% isoflurane, fixed to a photographing bed and then photographed.” left out
as §2, with “(ROI). […]” for “(ROI).”

[3] = oxiracetam 30, mirtazapine 10, olanzapine 10 mg/kg/day oral 21 days + dexamethasone, DEXA every 7 days
[4] = drug 30 mg/kg/day (piracetam 100 mg/kg/day) oral 21 days + dexamethasone, DEXA every 7 days

In the case of `NC(=O)CN1CC(O)CC1=O` (racemic) [oxiracetam, (RS)-2-(4-hydroxy-2-oxopyrrolidin-1-yl)acetamide], the “change in grip strength” value ([1]; oxiracetam 30, mirtazapine 10, olanzapine 10 mg/kg/day oral 21 days + dexamethasone 10 mg/kg i.p. day 7-21) is reported as “significantly recovers”, the “lean body mass of the gastrocnemius muscle (GS)” value [1, 3] is reported as “significantly recovers” and the “lean body mass of the tibialis anterior (TA)” value [1, 3] is reported as “significantly recovers”. For the same compound, the “change in grip strength” value ([2]; drug 30 mg/kg/day (piracetam 100 mg/kg/day) oral 21 days + dexamethasone 10 mg/kg i.p. day 7-21, day 20 vs day 0) was “recovers to greater than the control”, the “lean body mass of the gastrocnemius muscle (GS)” value [2, 4] was “recover the lean body mass of the gastrocnemius muscle (GS) to the control (vehicle) level” and the “lean body mass of the tibialis anterior (TA)” value [2, 4] was “recover the lean body mass of the tibialis anterior (TA) to the control (vehicle) level”.
